Tested on: adenocarcinoma of the large intestine
Test: Example 6: patient with large intestine adenocarcinoma and liver metastases treated with rhodamine 6G
Assay type: in vivo, human
Set-up: Nuclear segments / Lymphocytes (line r11) / Erythrocytes / Hemoglobin / Thrombocytes / Leukocytes / Amylase / Chlorine / Serum iron / Cholesterol / Total bilirubin / Bilirubin (line r8, above 'direct'): unit not given here
Conditions: for Erythrocytes / Hemoglobin / Leukocytes / Thrombocytes / Eosinophils / Cholesterol / Monocytes / Total bilirubin / Potassium / ALT / AST / Bilirubin (line r8, above 'direct') / Serum iron / Lymphocytes (line r11) / Nuclear segments / Total protein / Creatinine / Amylase / Chlorine / Indirect bilirubin fraction / direct (line r9) / indirect (line r11) / Basophils / Nuclear rods: Example 6, Patient N; for Eosinophils: normal 0-5; for Cholesterol: normal 1.66-8.3; for Monocytes: normal 2-9%; for Total bilirubin: normal 2.90-6.54; for Potassium: normal 3.5-6.0; for ALT / AST: normal 5-40; for Bilirubin (line r8, above 'direct'): normal 8.5-20.5; for Serum iron: normal 8.8-27.0; for Lymphocytes (line r11): normal 18-; for Nuclear segments: normal 45-70; for Total protein: normal 65.0-80; for Creatinine: normal 85.0; for Amylase: normal 95-110.0; for Chlorine: normal 135.0-; for Indirect bilirubin fraction / direct (line r9): normal to 25%; for indirect (line r11): normal to 100; for Basophils: normal 0-1%; for Nuclear rods: normal 1-6%
Experimental: Patient N. Diagnosis: adenocarcinoma of the large intestine. Metastases in the liver. Ascites. Three years previously a resection of the large intestine was performed with insertion of an anastomosis end to end. A full course of polychemo-therapy was given. Two years after the treatment the patient complained of pain in the bottom of the abdomen and tenesmus. The patient presented complaining of acute weakness, constant pain in the abdomen, coughing, dyspnea, ascites, retention of stools. Patient's condition serious, loss of appetite, pale cyanosed skin, abdomen with signs of ascites. […] A lump of irregular shape 2×4 cm in size with irregular edges was detected by computerized tomography in the right renal lobe. A large lump 4×5.4 cm in size and free liquid in the peritoneal cavity were also detected. […] The infusions were administered weekly over the course of 3 months. […] The enemas were administered three times a week over the course of 2 months. […] In the third week of treatment the dyspnea was less severe. In the course of treatment the tumor in the region of the anastomosis decreased in size to 0.2×0.3 cm. After 3 months the treatment was discontinued for 1 month, and was then resumed for a further 2 months.

[1] = Patient N, over the course of the treatment (3 months, 1 month pause, 2 months)

9-(2-ethoxycarbonyl)phenyl)-3,6-bis(ethylamino)2,7-dimethylxanthyl chloride [rhodamine 6G]
Erythrocytes (09 Dec. 2004): 4.44
Hemoglobin (09 Dec. 2004): 115
Leukocytes (09 Dec. 2004): 5.2
Thrombocytes (09 Dec. 2004): 326
Eosinophils (09 Dec. 2004): 2
Cholesterol (09 Dec. 2004): 5.75
Monocytes (09 Dec. 2004): 10%
Total bilirubin (09 Dec. 2004): 8.4
Potassium (09 Dec. 2004): 2.28
ALT (09 Dec. 2004): 69.2 el
AST (09 Dec. 2004): 45.7 el
Bilirubin (line r8, above 'direct') (09 Dec. 2004): 3.3
Serum iron (09 Dec. 2004): 54.8
Lymphocytes (line r11) (09 Dec. 2004): 58
Nuclear segments (09 Dec. 2004): 6
Total protein (09 Dec. 2004): 65 g/L
Creatinine (09 Dec. 2004): 74 µM
Amylase (09 Dec. 2004): 102.8
Chlorine (09 Dec. 2004): 114.31
Indirect bilirubin fraction (09 Dec. 2004): 84%
direct (line r9) (09 Dec. 2004): 5.1%
indirect (line r11) (09 Dec. 2004): 89 el
Erythrocytes (09 Jan. 2005): 4.87
Hemoglobin (09 Jan. 2005): 128
Leukocytes (09 Jan. 2005): 5.3
Thrombocytes (09 Jan. 2005): 440
Basophils (09 Jan. 2005): 1%
Eosinophils (09 Jan. 2005): 1
Nuclear rods (09 Jan. 2005): 2%
Cholesterol (09 Jan. 2005): 7.03
Monocytes (09 Jan. 2005): 12%
Total bilirubin (09 Jan. 2005): 8.0
Potassium (09 Jan. 2005): 2.15
ALT (09 Jan. 2005): 79 el
AST (09 Jan. 2005): 29.5 el
Bilirubin (line r8, above 'direct') (09 Jan. 2005): 2.0
Serum iron (09 Jan. 2005): 42.9
Lymphocytes (line r11) (09 Jan. 2005): 69
Nuclear segments (09 Jan. 2005): 5
Total protein (09 Jan. 2005): 82.53 g/L
Creatinine (09 Jan. 2005): 69 µM
Amylase (09 Jan. 2005): 110.0
Chlorine (09 Jan. 2005): 134.2
Indirect bilirubin fraction (09 Jan. 2005): 90%
direct (line r9) (09 Jan. 2005): 6.0%
indirect (line r11) (09 Jan. 2005): 78.0 el
Erythrocytes (9 Oct. 2004): 3.20
Hemoglobin (9 Oct. 2004): 74
Leukocytes (9 Oct. 2004): 9.2
Thrombocytes (9 Oct. 2004): 120
Basophils (9 Oct. 2004): 1%
Eosinophils (9 Oct. 2004): 1
Nuclear rods (9 Oct. 2004): 0%
Cholesterol (09 Oct. 2004): 6.21
Monocytes (9 Oct. 2004): 36%
Total bilirubin (09 Oct. 2004): 11.0
Potassium (09 Oct. 2004): 2.72
ALT (09 Oct. 2004): 465.8 el
AST (09 Oct. 2004): 265.7 el
Bilirubin (line r8, above 'direct') (09 Oct. 2004): 3.0
Serum iron (09 Oct. 2004): 190.4
Lymphocytes (line r11) (9 Oct. 2004): 35
Nuclear segments (9 Oct. 2004): 2
Total protein (09 Oct. 2004): 51.23 g/L
Creatinine (09 Oct. 2004): 118 µM
Amylase (09 Oct. 2004): 114.0
Chlorine (09 Oct. 2004): 114.20
Indirect bilirubin fraction (09 Oct. 2004): 82%
direct (line r9) (09 Oct. 2004): 8.0%
indirect (line r11) (09 Oct. 2004): 107.2 el
Cholesterol (24. Nov. 2004): 5.62
Total bilirubin (24. Nov. 2004): 24.2
Potassium (24. Nov. 2004): 2.32
ALT (24. Nov. 2004): 326 el
AST (24. Nov. 2004): 125.8 el
Bilirubin (line r8, above 'direct') (24. Nov. 2004): 22.3
Serum iron (24. Nov. 2004): 104.7
Total protein (24. Nov. 2004): 62.26 g/L
Creatinine (24. Nov. 2004): 89 µM
Amylase (24. Nov. 2004): 140
Chlorine (24. Nov. 2004): 115.3
Indirect bilirubin fraction (24. Nov. 2004): 96%
direct (line r9) (24. Nov. 2004): 11.9%
indirect (line r11) (24. Nov. 2004): 102 el
Erythrocytes (24 Nov. 2004): 3.84
Hemoglobin (24 Nov. 2004): 90
Leukocytes (24 Nov. 2004): 12.0
Thrombocytes (24 Nov. 2004): 210
Eosinophils (24 Nov. 2004): 2
Nuclear rods (24 Nov. 2004): 1%
Monocytes (24 Nov. 2004): 12%
Lymphocytes (line r11) (24 Nov. 2004): 49
Nuclear segments (24 Nov. 2004): 6
feeling of pain (Patient N, 55, ten days after start, i.v. infusions, enemas, oral solution): completely disappeared
body weight (Patient N, after treatment): Weight regained
blood indices (Patient N, during treatment): marked step-wise improvement
symptoms complained of (Patient N, in 2 years): no symptoms
metastases in the liver [1]: no metastases were detected
tumor in the region of the anastomosis [1]: no tumor was detected
dyspnea (Patient N, third week of treatment): less severe
